pIC50: −log10 of the molar value. Activity calls are given as the source filed them. The rule behind the calls is not given here.
Experiments:
[1] = molecular target: T1, Methionine aminopeptidase (Escherichia coli K-12) (UniProt P0AE18); assay: Inhibition of Mn2+ loaded MetAP expressed in Escherichia coli at upto 10 uM
T1 sequence (whole entry): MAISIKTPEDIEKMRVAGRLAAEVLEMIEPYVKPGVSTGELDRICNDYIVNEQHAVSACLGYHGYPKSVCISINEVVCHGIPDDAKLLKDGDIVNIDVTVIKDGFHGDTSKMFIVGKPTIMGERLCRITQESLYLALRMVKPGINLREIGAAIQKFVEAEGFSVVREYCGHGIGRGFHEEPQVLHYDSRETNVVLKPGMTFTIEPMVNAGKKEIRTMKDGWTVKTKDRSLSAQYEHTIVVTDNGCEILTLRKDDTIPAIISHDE

[2] = molecular target: T1, Methionine aminopeptidase (Escherichia coli K-12); assay: Inhibition of Co2+ loaded MetAP expressed in Escherichia coli at 10 uM
[3] = molecular target: T2, Methionine aminopeptidase (Escherichia coli K-12, UniProt P0AE18); assay: Inhibition of Co2+ loaded MetAP expressed in Escherichia coli
T2 sequence (P0AE18 whole entry): T1 sequence (whole entry)

SMILES	inhibition [1]	inhibition [2]	pIC50 [3]
COC(=O)Nc1nc2cc(Sc3ccccc3)ccc2[nH]1	inactive	6.07%	–
c1coc(-c2nc3ccccc3[nH]2)c1 [FUBERIDAZOLE]	inactive	10.4%	< 5.00
Cc1cc2nc(-c3ccccn3)[nH]c2cc1C	inactive	–	5.61
Clc1ccc2[nH]c(-c3cscn3)nc2c1	inactive	–	5.29
c1c[nH]c2nc(-c3cscn3)nc-2c1	inactive	–	7.11
CC(C)(C)c1ccc2[nH]c(-c3ccccn3)nc2c1	inactive	–	–
O=C(c1ccccc1)c1ccc2nc(-c3ccccn3)[nH]c2c1	–	–	6.39
CCCSc1ccc2nc(NC(=O)OC)[nH]c2c1 [ALBENDAZOLE]	–	–	< 5.00
O=[N+]([O-])c1ccc2[nH]c(-c3ccccn3)nc2c1	inactive	–	6.79
c1ccc2[nH]c(-c3cscn3)nc2c1 [THIABENDAZOLE]	inactive	–	6.33
c1ccc(-c2nc3ncc[nH]c-3n2)nc1	inactive	–	6.62
c1ccc(-c2nc3c[nH]cnc-3n2)nc1	inactive	–	6.42
O=[N+]([O-])c1ccc2[nH]c(-c3cscn3)nc2c1	inactive	–	–
COC(=O)Nc1nc2ccc(Sc3ccccc3)cc2[nH]1 [FENBENDAZOLE]	–	–	< 5.00
Cc1ccc2[nH]c(-c3cscn3)nc2c1	inactive	–	–
c1cncc(-c2nc3ccccc3[nH]2)c1	inactive	4.21%	< 5.00
Nc1ccc2nc(-c3ccccn3)[nH]c2c1	–	–	6.01
N/C(S)=N/c1nc2ccccc2[nH]1	inactive	–	–
O=c1cccc(-c2nc3ccccc3[nH]2)[nH]1	–	–	5.87
CC(C)(C)c1ccc2nc(-c3cscn3)[nH]c2c1	–	–	5.41
N#Cc1ccc2[nH]c(-c3ccccn3)nc2c1	inactive	–	6.37
CC(C)(C)c1ccc2[nH]c(-c3cscn3)nc2c1	inactive	–	–
Nc1ccc2[nH]c(-c3cscn3)nc2c1	inactive	–	5.47
NC(=S)Nc1nc2ccccc2[nH]1	–	–	5.05
COC(=O)Nc1nc2cc(C(=O)c3ccccc3)ccc2[nH]1	inactive	29%	–
O=C(c1ccccc1)c1ccc2[nH]c(-c3cscn3)nc2c1	inactive	–	–
CC(C)(C)c1ccc2nc(-c3ccccn3)[nH]c2c1	–	–	5.59

SMILES	inhibition [1]	inhibition [2]	pIC50 [3]
Cc1ccc2[nH]c(-c3ccccn3)nc2c1	–	–	5.68
Clc1ccc2nc(-c3ccccn3)[nH]c2c1	inactive	–	5.77
Fc1ccc2nc(-c3ccccn3)[nH]c2c1	inactive	–	–
Cc1cc2nc(-c3cscn3)[nH]c2cc1C	inactive	47.8%	< 5.00
COC(=O)Nc1nc2ccccc2[nH]1 [CARBENDAZIM]	inactive	17.6%	< 5.00
O=C(c1ccccc1)c1ccc2[nH]c(-c3ccccn3)nc2c1	inactive	–	–
Oc1cccc(-c2nc3ccccc3[nH]2)n1	inactive	–	–
c1ccc(-c2nc3ccc[nH]c-3n2)nc1	inactive	–	6.98
COC(=O)Nc1nc2ccc(C(=O)c3ccccc3)cc2[nH]1 [MEBENDAZOLE]	–	–	< 5.00
c1ccc(Cn2c(-c3cscn3)nc3ccccc32)cc1	inactive	–	–
c1ccc2[nH]c(Nc3nccs3)nc2c1	inactive	–	6.27
Cn1c(-c2cscn2)nc2ccccc21	inactive	–	–
Oc1cccnc1-c1nc2ccccc2[nH]1	inactive	–	6.11
Fc1ccc2[nH]c(-c3ccccn3)nc2c1	–	–	5.82
c1ccc(-c2nc3cc[nH]cc-3n2)nc1	inactive	–	6.26
c1cc2nc(-c3cscn3)[nH]c2cn1	–	–	5.76
Oc1ccccc1-c1nc2ccccc2[nH]1	inactive	30.4%	< 5.00
c1cc2[nH]c(-c3cscn3)nc2cn1	inactive	–	–
Fc1ccc2[nH]c(-c3cscn3)nc2c1	inactive	–	–
c1ccc(Cn2c(-c3ccccn3)nc3ccccc32)cc1	inactive	–	6.00
c1ccc(-c2nc3ccccc3[nH]2)nc1	inactive	–	6.24
Cc1ccc2nc(-c3ccccn3)[nH]c2c1	inactive	–	–
Nc1ccc2[nH]c(-c3ccccn3)nc2c1	inactive	–	–
c1ccc2[nH]c(-c3cnccn3)nc2c1	inactive	–	5.34
c1csc(-c2nc3ccccc3[nH]2)c1	inactive	5.36%	< 5.00
CCCSc1ccc2[nH]c(NC(=O)OC)nc2c1	inactive	15.4%	–
